The values that follow come from ChEMBL document CHEMBL3046845, “A facile synthesis of novel optically active R,R-2-(4-(2-(4-(5-chloro-3-halo-pyridin-2-yloxy)-phenoxy)-propionyloxy)-phenoxy)-propionic acid esters using cyanuric chloride as potential herbicide” (Chin Chem Lett, 2011).

The subject of series [1] is Alopecurus myosuroides. Put plainly: Herbicidal activity against Alopecurus myosuroides assessed as growth inhibition at 125 g/ha after 3 weeks relative to control. In kind it is functional. Particulars: 504 h, read-out: GI.
Series [2] concerns Avena fatua. Put plainly: Herbicidal activity against Avena fatua assessed as growth inhibition at 125 g/ha after 3 weeks relative to control. Type of series: functional. The conditions noted are these: 504 h, read-out: GI.
Series [3] deals with Echinochloa crus-galli. Put plainly: Herbicidal activity against Echinochloa crus-galli (barnyard grass) assessed as growth inhibition at 125 g/ha after 3 weeks relative to control. Type of series: functional. Particulars: 504 h, read-out: GI.
Series [4] in a line: Phytoxicity against Hordeum vulgare (barley) assessed as growth inhibition at 125 g/ha after 3 weeks relative to control. The conditions noted are these: in vivo, read-out: GI. In kind it is organism-based.
Series [5] can be described thus: Phytotoxicity against Triticum aestivum (wheat) assessed as growth inhibition at 125 g/ha after 3 weeks relative to control. Particulars: in vivo, read-out: GI. In kind it is organism-based.

Turning to `COC(=O)[C@@H](C)Oc1ccc(Oc2ncc(Cl)cc2F)cc1`, the values for the inhibition of growth at 125 g/ha in series [1], in series [2] and in series [3] were 75%, 90% and 80%, respectively. For the same molecule, the inhibition at 504 h in series [4] was 35%; in series [5], 10%.
For `COC(=O)[C@@H](C)Oc1ccc(OC(=O)[C@@H](C)Oc2ccc(Oc3ncc(Cl)cc3F)cc2)cc1`, the results for the inhibition of growth at 125 g/ha in series [1], in series [2] and in series [3] were 80%, 90% and 80%, respectively. For the same molecule, the inhibition at 504 h in series [4] was found to be 10%; in series [5] it was 0%.
With `CCOC(=O)[C@@H](C)Oc1ccc(Oc2ncc(Cl)cc2F)cc1`, the inhibition of growth at 125 g/ha in series [1] was 82%; in series [2], 90%; in series [3] it was 75%. Further, the inhibition at 504 h in series [4] is 27%; in series [5] it was 5%.
In the same order, the values of `CCOC(=O)[C@@H](C)Oc1ccc(OC(=O)[C@@H](C)Oc2ccc(Oc3ncc(Cl)cc3F)cc2)cc1` are 90%, 93%, 80%, 10% and 0%.
In the same order, the values of `CCCOC(=O)[C@@H](C)Oc1ccc(Oc2ncc(Cl)cc2F)cc1` are 76%, 84%, 62%, 35% and 10%.
The corresponding values for `CCCOC(=O)[C@@H](C)Oc1ccc(OC(=O)[C@@H](C)Oc2ccc(Oc3ncc(Cl)cc3F)cc2)cc1` are 79%, 89%, 70%, 15% and 0%.
In the case of `CC(C)OC(=O)[C@@H](C)Oc1ccc(Oc2ncc(Cl)cc2F)cc1`, the inhibition of growth at 125 g/ha stood at 73% in series [1], 81% in series [2] and 57% in series [3]. Further, the inhibition at 504 h in series [4] was found to be 30%; in series [5], 10%.
In the same order, the values of `CC(C)OC(=O)[C@@H](C)Oc1ccc(OC(=O)[C@@H](C)Oc2ccc(Oc3ncc(Cl)cc3F)cc2)cc1` are 78%, 85%, 65%, 12% and 0%.
In the same order, the values of `CCCCOC(=O)[C@@H](C)Oc1ccc(Oc2ncc(Cl)cc2F)cc1` are 54%, 62%, 55%, 25% and 15%.
In the same order, the values of `CCCCOC(=O)[C@@H](C)Oc1ccc(OC(=O)[C@@H](C)Oc2ccc(Oc3ncc(Cl)cc3F)cc2)cc1` are 62%, 63%, 54%, 10% and 5%.
With `C#CCOC(=O)[C@@H](C)Oc1ccc(OC(=O)[C@@H](C)Oc2ccc(Oc3ncc(Cl)cc3F)cc2)cc1`, the inhibition of growth at 125 g/ha in series [1] was determined as 100%; in series [2] it was 100%; in series [3], 92%. The inhibition at 504 h in series [4] and in series [5] was 0% in each case.
In the case of `COC(=O)[C@@H](C)Oc1ccc(Oc2ncc(Cl)cc2Cl)cc1`, the inhibition of growth at 125 g/ha in series [1] was determined as 30%; in series [2] it was 30%; in series [3], 40%. Moreover, the inhibition at 504 h is 30% in series [4] and 10% in series [5].
With `COC(=O)[C@@H](C)Oc1ccc(OC(=O)[C@@H](C)Oc2ccc(Oc3ncc(Cl)cc3Cl)cc2)cc1`, the values for the inhibition of growth at 125 g/ha in series [1], in series [2] and in series [3] were 42%, 43% and 44%, respectively. The inhibition at 504 h in series [4] stood at 15%; in series [5] it was 0%.
In the same order, the values of `CCOC(=O)[C@@H](C)Oc1ccc(Oc2ncc(Cl)cc2Cl)cc1` are 45%, 50%, 51%, 25% and 10%.
As for `CCOC(=O)[C@@H](C)Oc1ccc(OC(=O)[C@@H](C)Oc2ccc(Oc3ncc(Cl)cc3Cl)cc2)cc1`, the inhibition of growth at 125 g/ha came to 52% in series [1], 54% in series [2] and 54% in series [3]. Further, the inhibition at 504 h in series [4] was 15%; in series [5] it was 0%.
For `CCCOC(=O)[C@@H](C)Oc1ccc(Oc2ncc(Cl)cc2Cl)cc1`, the inhibition of growth at 125 g/ha worked out at 35% in series [1], 45% in series [2] and 40% in series [3]. For the same molecule, the inhibition at 504 h stood at 18% in series [4] and 15% in series [5].
The corresponding values for `CCCOC(=O)[C@@H](C)Oc1ccc(OC(=O)[C@@H](C)Oc2ccc(Oc3ncc(Cl)cc3Cl)cc2)cc1` are 36%, 50%, 45%, 10% and 0%.
The corresponding values for `C#CCOC(=O)[C@@H](C)Oc1ccc(Oc2ncc(Cl)cc2Cl)cc1` are 57%, 47%, 45%, 20% and 0%.
In the same order, the values of `C#CCOC(=O)[C@@H](C)Oc1ccc(OC(=O)[C@@H](C)Oc2ccc(Oc3ncc(Cl)cc3Cl)cc2)cc1` are 60%, 50%, 53%, 5% and 0%.
In the case of `C#CCOC(=O)[C@@H](C)Oc1ccc(Oc2ncc(Cl)cc2F)cc1` [CLODINAFOP PROPARGYL], the inhibition of growth at 125 g/ha in series [1] turned out to be 88%; in series [2] it was 95%; in series [3], 82%. Further, the inhibition at 504 h in series [4] was 20%; in series [5], 0%.
